Measurements as given in patent US12390437B2, “Itaconic acid derivatives and uses thereof intreating an inflammatory disease or a disease associated with an undesirable immune response” (Sitryx Therapeutics Limited, priority 2019, dated 2025).

tested on: hepatocytes; experiment: Hepatocyte stability assay (human); format: in vitro ADME; settings: 10 μM compound, 0.5×10^6 cells/mL, 60 minutes
Source text: (§1) Defrosted cryo-preserved hepatocytes (viability >70%) are used to determine the metabolic stability of a compound via calculation of intrinsic clearance (Clint; a measure of the removal of a compound from the liver in the absence of blood flow and cell binding). Clearance data are particularly important for in vitro work as they can be used in combination with in vivo data to predict the half-life and oral bioavailability of a drug.
(§2) The metabolic stability in hepatocytes assay involves a time-dependent reaction using both positive and negative controls. The cells must be pre-incubated at 37° C. then spiked with test compound (and positive control); samples taken at pre-determined time intervals are analysed to monitor the change in concentration of the initial drug compound over 60 minutes. A buffer incubation reaction (with no hepatocytes present) acts as a negative control and two cocktail solutions, containing compounds with known high and low clearance values (verapamil/7-hydroxycoumarin and propranolol/diltiazem), act as positive controls. • 1. The assay is run with a cell concentration of 0.5×10^6 cells/mL in Leibovitz buffer. • 2. All compounds and controls are run in duplicate. • 3. Compound concentration is 10 μM. • 4. All compounds and controls are incubated with both cells and buffer to show turnover is due to hepatic metabolism. • 5. All wells on the incubation plate will have 326.7 μL of either cells or buffer added. • 6. Prior to assay, cell and buffer-only incubation plates are preincubated for 10 mins at 37° C. • 7. The assay is initiated by adding compounds, 3.3 μL of 1 mM in 10% DMSO-90% Buffer; final DMSO concentration is 0.1%. • 8. Samples are taken at regular timepoints (0, 5, 10, 20, 40, 60 min) until 60 mins. • 9. Sample volume is 40 μL and it is added to 160 μL of crash solvent (acetonitrile with internal standard) and stored on ice. • 10. At the end of the assay, the crash plates are centrifuged at 3500 rpm for 20 mins at 4° C. • 11. 80 μL of clear supernatant is removed and mixed with 80 μL of deionised water before being analysed by LC-MS/MS.
(§3) Raw LC-MS/MS data are exported to, and analysed in, Microsoft Excel for determination of intrinsic clearance. The percentage remaining of a compound is monitored using the peak area of the initial concentration as 100%. Intrinsic clearance and half-life values are calculated using a graph of the natural log of percentage remaining versus the time of reaction in minutes. Half-life (min) and intrinsic clearance (Clint in μL min^−1 10^−6 cells) values are calculated using the gradient of the graph (the elimination rate constant, k) and Equations 1 and 2.

CIint (μL min^−1 10^−6 cells)	SMILES
48 μL min^−1 10^−6 cells	C=C(CC(=O)OC1CCCCCCC1)C(=O)OC(C)c1nnn[nH]1 (stereo not shown) [Example 133, 1-(1-(1H-tetrazol-5-yl)ethyl) 4-cyclooctyl 2-methylenesuccinate]
27 μL min^−1 10^−6 cells	C=C(CC(=O)OC1CCCCCCC1)C(=O)OCc1nnn[nH]1 [Example 134, 1-((1H-tetrazol-5-yl)methyl) 4-cyclooctyl 2-methylenesuccinate]

tested on: not listed separately; experiment: Hepatocyte stability assay (human); format: in vitro ADME; settings: cryopreserved hepatocytes, 10 μM compound, 0.5×10^6 cells/mL, 60 minutes, read-out: T½
Source text: as §1, §2, §3

half-life at 10 μM	SMILES
30 min	C=C(CC(=O)OC1CCCCCCC1)C(=O)OC(C)c1nnn[nH]1 (stereo not shown) [Example 133, 1-(1-(1H-tetrazol-5-yl)ethyl) 4-cyclooctyl 2-methylenesuccinate]
53 min	C=C(CC(=O)OC1CCCCCCC1)C(=O)OCc1nnn[nH]1 [Example 134, 1-((1H-tetrazol-5-yl)methyl) 4-cyclooctyl 2-methylenesuccinate]

tested on: not listed separately; experiment: Mouse pharmacokinetic study, oral administration; format: in vivo; settings: male, C57BL/6, mouse, plasma, po, 100 mg/kg, plasma, male C57BL/6 mice, oral gavage 100 mg/kg, 0.083 h; read-out: Parent compound concentrations following oral administration, Time 0.083 h
Method in brief: (§4)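 Male C57BL/6 mice (6-8 weeks, fed ad libitum) received 10 mg/kg IV by tail vein in 10% DMSO/HP-β-CD vehicle, or 100 mg/kg by oral gavage in DMSO/HPMC/Tween 80. Facial-vein blood was taken at 9 time points (N=3 each) into K2EDTA; plasma concentrations were measured by LC-MS/MS.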

concentration at 0.083 h	SMILES
9360 ng/mL	C=C(CC(=O)OC1CCCCCCC1)C(=O)OC(C)c1nnn[nH]1 (stereo not shown) [Example 133, 1-(1-(1H-tetrazol-5-yl)ethyl) 4-cyclooctyl 2-methylenesuccinate]
17500 ng/mL	C=C(CC(=O)OC1CCCCCCC1)C(=O)OCc1nnn[nH]1 [Example 134, 1-((1H-tetrazol-5-yl)methyl) 4-cyclooctyl 2-methylenesuccinate]

same assay, conditions: male, C57BL/6, mouse, plasma, po, 100 mg/kg, plasma, male C57BL/6 mice, oral gavage 100 mg/kg, 0.25 h; read-out: Parent compound concentrations following oral administration, Time 0.25 h

concentration at 0.25 h	SMILES
9940 ng/mL	C=C(CC(=O)OC1CCCCCCC1)C(=O)OC(C)c1nnn[nH]1 (stereo not shown) [Example 133, 1-(1-(1H-tetrazol-5-yl)ethyl) 4-cyclooctyl 2-methylenesuccinate]
3500 ng/mL	C=C(CC(=O)OC1CCCCCCC1)C(=O)OCc1nnn[nH]1 [Example 134, 1-((1H-tetrazol-5-yl)methyl) 4-cyclooctyl 2-methylenesuccinate]

same assay, conditions: male, C57BL/6, mouse, plasma, po, 100 mg/kg, plasma, male C57BL/6 mice, oral gavage 100 mg/kg, 0.5 h; read-out: Parent compound concentrations following oral administration, Time 0.5 h

concentration at 0.5 h	SMILES
4270 ng/mL	C=C(CC(=O)OC1CCCCCCC1)C(=O)OC(C)c1nnn[nH]1 (stereo not shown) [Example 133, 1-(1-(1H-tetrazol-5-yl)ethyl) 4-cyclooctyl 2-methylenesuccinate]
7970 ng/mL	C=C(CC(=O)OC1CCCCCCC1)C(=O)OCc1nnn[nH]1 [Example 134, 1-((1H-tetrazol-5-yl)methyl) 4-cyclooctyl 2-methylenesuccinate]

same assay, conditions: male, C57BL/6, mouse, plasma, po, 100 mg/kg, plasma, male C57BL/6 mice, oral gavage 100 mg/kg, 1 h; read-out: Parent compound concentrations following oral administration, Time 1 h

concentration at 1 h	SMILES
1100 ng/mL	C=C(CC(=O)OC1CCCCCCC1)C(=O)OC(C)c1nnn[nH]1 (stereo not shown) [Example 133, 1-(1-(1H-tetrazol-5-yl)ethyl) 4-cyclooctyl 2-methylenesuccinate]
1980 ng/mL	C=C(CC(=O)OC1CCCCCCC1)C(=O)OCc1nnn[nH]1 [Example 134, 1-((1H-tetrazol-5-yl)methyl) 4-cyclooctyl 2-methylenesuccinate]

same assay, conditions: male, C57BL/6, mouse, plasma, po, 100 mg/kg, plasma, male C57BL/6 mice, oral gavage 100 mg/kg, 2 h; read-out: Parent compound concentrations following oral administration, Time 2 h

concentration at 2 h	SMILES
527 ng/mL	C=C(CC(=O)OC1CCCCCCC1)C(=O)OC(C)c1nnn[nH]1 (stereo not shown) [Example 133, 1-(1-(1H-tetrazol-5-yl)ethyl) 4-cyclooctyl 2-methylenesuccinate]
856 ng/mL	C=C(CC(=O)OC1CCCCCCC1)C(=O)OCc1nnn[nH]1 [Example 134, 1-((1H-tetrazol-5-yl)methyl) 4-cyclooctyl 2-methylenesuccinate]

same assay, conditions: male, C57BL/6, mouse, plasma, po, 100 mg/kg, plasma, male C57BL/6 mice, oral gavage 100 mg/kg, 4 h; read-out: Parent compound concentrations following oral administration, Time 4 h

concentration at 4 h	SMILES
799 ng/mL	C=C(CC(=O)OC1CCCCCCC1)C(=O)OC(C)c1nnn[nH]1 (stereo not shown) [Example 133, 1-(1-(1H-tetrazol-5-yl)ethyl) 4-cyclooctyl 2-methylenesuccinate]
636 ng/mL	C=C(CC(=O)OC1CCCCCCC1)C(=O)OCc1nnn[nH]1 [Example 134, 1-((1H-tetrazol-5-yl)methyl) 4-cyclooctyl 2-methylenesuccinate]

same assay, conditions: male, C57BL/6, mouse, plasma, po, 100 mg/kg, plasma, male C57BL/6 mice, oral gavage 100 mg/kg, 6 h; read-out: Parent compound concentrations following oral administration, Time 6 h

concentration at 6 h	SMILES
146 ng/mL	C=C(CC(=O)OC1CCCCCCC1)C(=O)OC(C)c1nnn[nH]1 (stereo not shown) [Example 133, 1-(1-(1H-tetrazol-5-yl)ethyl) 4-cyclooctyl 2-methylenesuccinate]
94 ng/mL	C=C(CC(=O)OC1CCCCCCC1)C(=O)OCc1nnn[nH]1 [Example 134, 1-((1H-tetrazol-5-yl)methyl) 4-cyclooctyl 2-methylenesuccinate]

same assay, conditions: male, C57BL/6, mouse, plasma, po, 100 mg/kg, plasma, male C57BL/6 mice, oral gavage 100 mg/kg, 8 h; read-out: Parent compound concentrations following oral administration, Time 8 h

concentration at 8 h	SMILES
101 ng/mL	C=C(CC(=O)OC1CCCCCCC1)C(=O)OC(C)c1nnn[nH]1 (stereo not shown) [Example 133, 1-(1-(1H-tetrazol-5-yl)ethyl) 4-cyclooctyl 2-methylenesuccinate]
62 ng/mL	C=C(CC(=O)OC1CCCCCCC1)C(=O)OCc1nnn[nH]1 [Example 134, 1-((1H-tetrazol-5-yl)methyl) 4-cyclooctyl 2-methylenesuccinate]

same assay, conditions: male, C57BL/6, mouse, plasma, po, 100 mg/kg, plasma, male C57BL/6 mice, oral gavage 100 mg/kg, 24 h; read-out: Parent compound concentrations following oral administration, Time 24 h

concentration at 24 h	SMILES
< 8 ng/mL	C=C(CC(=O)OC1CCCCCCC1)C(=O)OC(C)c1nnn[nH]1 (stereo not shown) [Example 133, 1-(1-(1H-tetrazol-5-yl)ethyl) 4-cyclooctyl 2-methylenesuccinate]
7 ng/mL	C=C(CC(=O)OC1CCCCCCC1)C(=O)OCc1nnn[nH]1 [Example 134, 1-((1H-tetrazol-5-yl)methyl) 4-cyclooctyl 2-methylenesuccinate]

tested on: not listed separately; experiment: Mouse pharmacokinetic study, intravenous dosing; format: in vivo; settings: male, C57BL/6, mouse, iv; plasma, 10 mg/kg i.v., time 0.05 h; read-out: Parent compound concentration following intravenous administration
Method in brief: as §4

concentration at 0.05 h	SMILES
11000 ng/mL	C=C(CC(=O)OC1CCCCCCC1)C(=O)OC(C)c1nnn[nH]1 (stereo not shown) [Example 133, 1-(1-(1H-tetrazol-5-yl)ethyl) 4-cyclooctyl 2-methylenesuccinate]
31600 ng/mL	C=C(CC(=O)OC1CCCCCCC1)C(=O)OCc1nnn[nH]1 [Example 134, 1-((1H-tetrazol-5-yl)methyl) 4-cyclooctyl 2-methylenesuccinate]

same assay, conditions: male, C57BL/6, mouse, iv; plasma, 10 mg/kg i.v., time 0.133 h; read-out: Parent compound concentration following intravenous administration

concentration at 0.133 h	SMILES
4570 ng/mL	C=C(CC(=O)OC1CCCCCCC1)C(=O)OC(C)c1nnn[nH]1 (stereo not shown) [Example 133, 1-(1-(1H-tetrazol-5-yl)ethyl) 4-cyclooctyl 2-methylenesuccinate]
7760 ng/mL	C=C(CC(=O)OC1CCCCCCC1)C(=O)OCc1nnn[nH]1 [Example 134, 1-((1H-tetrazol-5-yl)methyl) 4-cyclooctyl 2-methylenesuccinate]

same assay, conditions: male, C57BL/6, mouse, iv; plasma, 10 mg/kg i.v., time 0.25 h; read-out: Parent compound concentration following intravenous administration

concentration at 0.25 h	SMILES
1950 ng/mL	C=C(CC(=O)OC1CCCCCCC1)C(=O)OC(C)c1nnn[nH]1 (stereo not shown) [Example 133, 1-(1-(1H-tetrazol-5-yl)ethyl) 4-cyclooctyl 2-methylenesuccinate]
2890 ng/mL	C=C(CC(=O)OC1CCCCCCC1)C(=O)OCc1nnn[nH]1 [Example 134, 1-((1H-tetrazol-5-yl)methyl) 4-cyclooctyl 2-methylenesuccinate]

same assay, conditions: male, C57BL/6, mouse, iv; plasma, 10 mg/kg i.v., time 0.5 h; read-out: Parent compound concentration following intravenous administration

concentration at 0.5 h	SMILES
315 ng/mL	C=C(CC(=O)OC1CCCCCCC1)C(=O)OC(C)c1nnn[nH]1 (stereo not shown) [Example 133, 1-(1-(1H-tetrazol-5-yl)ethyl) 4-cyclooctyl 2-methylenesuccinate]
4300 ng/mL	C=C(CC(=O)OC1CCCCCCC1)C(=O)OCc1nnn[nH]1 [Example 134, 1-((1H-tetrazol-5-yl)methyl) 4-cyclooctyl 2-methylenesuccinate]

same assay, conditions: male, C57BL/6, mouse, iv; plasma, 10 mg/kg i.v., time 1 h; read-out: Parent compound concentration following intravenous administration

concentration at 1 h	SMILES
33 ng/mL	C=C(CC(=O)OC1CCCCCCC1)C(=O)OC(C)c1nnn[nH]1 (stereo not shown) [Example 133, 1-(1-(1H-tetrazol-5-yl)ethyl) 4-cyclooctyl 2-methylenesuccinate]
74 ng/mL	C=C(CC(=O)OC1CCCCCCC1)C(=O)OCc1nnn[nH]1 [Example 134, 1-((1H-tetrazol-5-yl)methyl) 4-cyclooctyl 2-methylenesuccinate]

same assay, conditions: male, C57BL/6, mouse, iv; plasma, 10 mg/kg i.v., time 2 h; read-out: Parent compound concentration following intravenous administration

concentration at 2 h	SMILES
< 8 ng/mL	C=C(CC(=O)OC1CCCCCCC1)C(=O)OC(C)c1nnn[nH]1 (stereo not shown) [Example 133, 1-(1-(1H-tetrazol-5-yl)ethyl) 4-cyclooctyl 2-methylenesuccinate]
12 ng/mL	C=C(CC(=O)OC1CCCCCCC1)C(=O)OCc1nnn[nH]1 [Example 134, 1-((1H-tetrazol-5-yl)methyl) 4-cyclooctyl 2-methylenesuccinate]

same assay, conditions: male, C57BL/6, mouse, iv; plasma, 10 mg/kg i.v., time 4 h; read-out: Parent compound concentration following intravenous administration

concentration at 4 h	SMILES
< 8 ng/mL	C=C(CC(=O)OC1CCCCCCC1)C(=O)OC(C)c1nnn[nH]1 (stereo not shown) [Example 133, 1-(1-(1H-tetrazol-5-yl)ethyl) 4-cyclooctyl 2-methylenesuccinate]
11 ng/mL	C=C(CC(=O)OC1CCCCCCC1)C(=O)OCc1nnn[nH]1 [Example 134, 1-((1H-tetrazol-5-yl)methyl) 4-cyclooctyl 2-methylenesuccinate]

same assay, conditions: male, C57BL/6, mouse, iv; plasma, 10 mg/kg i.v., time 6 h; read-out: Parent compound concentration following intravenous administration

concentration at 6 h	SMILES
< 8 ng/mL	C=C(CC(=O)OC1CCCCCCC1)C(=O)OC(C)c1nnn[nH]1 (stereo not shown) [Example 133, 1-(1-(1H-tetrazol-5-yl)ethyl) 4-cyclooctyl 2-methylenesuccinate]
1.4 ng/mL	C=C(CC(=O)OC1CCCCCCC1)C(=O)OCc1nnn[nH]1 [Example 134, 1-((1H-tetrazol-5-yl)methyl) 4-cyclooctyl 2-methylenesuccinate]

same assay, conditions: male, C57BL/6, mouse, iv; plasma, 10 mg/kg i.v., time 8 h; read-out: Parent compound concentration following intravenous administration

concentration at 8 h	SMILES
< 8 ng/mL	C=C(CC(=O)OC1CCCCCCC1)C(=O)OC(C)c1nnn[nH]1 (stereo not shown) [Example 133, 1-(1-(1H-tetrazol-5-yl)ethyl) 4-cyclooctyl 2-methylenesuccinate]
1.7 ng/mL	C=C(CC(=O)OC1CCCCCCC1)C(=O)OCc1nnn[nH]1 [Example 134, 1-((1H-tetrazol-5-yl)methyl) 4-cyclooctyl 2-methylenesuccinate]
